{
  "source": "PubChem BioAssay (NCI)",
  "assay_in_all_cases": "inhibition of tumour cell growth, NCI panel, 48 h",
  "key": {"[1]": {"system": "786-0 renal"}, "[2]": {"system": "A498 renal"}, "[3]": {"system": "A549 NSCLC"}, "[4]": {"system": "ACHN renal"}, "[5]": {"system": "BT-549 breast"}, "[6]": {"system": "CAKI-1 renal"}, "[7]": {"system": "CCRF-CEM leukemia"}, "[8]": {"system": "COLO 205 colon"}, "[9]": {"system": "DU-145 prostate"}, "[10]": {"system": "EKVX NSCLC"}, "[11]": {"system": "HCC-2998 colon"}, "[12]": {"system": "HCT-116 colon"}, "[13]": {"system": "HCT-15 colon"}, "[14]": {"system": "HL-60(TB) leukemia"}, "[15]": {"system": "HOP-62 NSCLC"}, "[16]": {"system": "HOP-92 NSCLC"}, "[17]": {"system": "HS 578T breast"}, "[18]": {"system": "HT29 colon"}, "[19]": {"system": "IGROV1 ovarian"}, "[20]": {"system": "K-562 leukemia"}, "[21]": {"system": "KM12 colon"}, "[22]": {"system": "LOX IMVI melanoma"}, "[23]": {"system": "M14 melanoma"}, "[24]": {"system": "MALME-3M melanoma"}, "[25]": {"system": "MCF7 breast"}, "[26]": {"system": "MDA-MB-231 breast"}, "[27]": {"system": "MDA-MB-435"}, "[28]": {"system": "MOLT-4 leukemia"}, "[29]": {"system": "NCI-H226 lung"}},
  "note": "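Values below derive from 48-hour exposures of cells grown in 96-well plates, with endpoints linearly interpolated between the two concentrations bracketing the appropriate inhibition level. Here, GI50 denotes the concentration required for 50% inhibition of growth. The concentration for full growth arrest is given as TGI.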",
  "data": [
    {"smiles": "O=c1c2c(=NCCN3CCCC3)cc3c(=O)n(CCCN4CCOCC4)c(=O)c4ccc(c(O)n1CCCN1CCOCC1)c2c4-3", "values": [
      {"measurement": "GI50", "setting": "[1]", "value": 145, "unit": "nM"},
      {"measurement": "TGI", "setting": "[1]", "value": 1100, "unit": "nM"},
      {"measurement": "GI50", "setting": "[2]", "value": 173, "unit": "nM"},
      {"measurement": "TGI", "setting": "[2]", "value": 981, "unit": "nM"},
      {"measurement": "GI50", "setting": "[3]", "value": 44.1, "unit": "nM"},
      {"measurement": "TGI", "setting": "[3]", "value": 3440, "unit": "nM"},
      {"measurement": "GI50", "setting": "[4]", "value": 90.9, "unit": "nM"},
      {"measurement": "TGI", "setting": "[4]", "value": 1510, "unit": "nM"},
      {"measurement": "GI50", "setting": "[5]", "value": 917, "unit": "nM"},
      {"measurement": "TGI", "setting": "[5]", "value": 2990, "unit": "nM"},
      {"measurement": "GI50", "setting": "[6]", "value": 218, "unit": "nM"},
      {"measurement": "TGI", "setting": "[6]", "value": 1410, "unit": "nM"},
      {"measurement": "GI50", "setting": "[7]", "value": 53.2, "unit": "nM"},
      {"measurement": "TGI", "setting": "[7]", "value": 1590, "unit": "nM"},
      {"measurement": "GI50", "setting": "[8]", "value": 165, "unit": "nM"},
      {"measurement": "TGI", "setting": "[8]", "value": 423, "unit": "nM"},
      {"measurement": "GI50", "setting": "[9]", "value": 88, "unit": "nM"},
      {"measurement": "TGI", "setting": "[9]", "value": 1670, "unit": "nM"},
      {"measurement": "GI50", "setting": "[10]", "value": 153, "unit": "nM"},
      {"measurement": "TGI", "setting": "[10]", "value": 427, "unit": "nM"},
      {"measurement": "GI50", "setting": "[11]", "value": 60.3, "unit": "nM"},
      {"measurement": "TGI", "setting": "[11]", "value": 563, "unit": "nM"},
      {"measurement": "GI50", "setting": "[12]", "value": "< 17.4", "unit": "nM"},
      {"measurement": "TGI", "setting": "[12]", "value": 1090, "unit": "nM"},
      {"measurement": "GI50", "setting": "[13]", "value": "< 20.1", "unit": "nM"},
      {"measurement": "TGI", "setting": "[13]", "value": 946, "unit": "nM"},
      {"measurement": "GI50", "setting": "[14]", "value": 338, "unit": "nM"},
      {"measurement": "TGI", "setting": "[14]", "value": 1430, "unit": "nM"},
      {"measurement": "GI50", "setting": "[15]", "value": 57.7, "unit": "nM"},
      {"measurement": "TGI", "setting": "[15]", "value": 832, "unit": "nM"},
      {"measurement": "GI50", "setting": "[16]", "value": 129, "unit": "nM"},
      {"measurement": "TGI", "setting": "[16]", "value": 607, "unit": "nM"},
      {"measurement": "GI50", "setting": "[17]", "value": 1180, "unit": "nM"},
      {"measurement": "TGI", "setting": "[17]", "value": 5240, "unit": "nM"},
      {"measurement": "GI50", "setting": "[18]", "value": "< 18.1", "unit": "nM"},
      {"measurement": "TGI", "setting": "[18]", "value": 1040, "unit": "nM"},
      {"measurement": "GI50", "setting": "[19]", "value": 47.9, "unit": "nM"},
      {"measurement": "TGI", "setting": "[19]", "value": 1500, "unit": "nM"},
      {"measurement": "GI50", "setting": "[20]", "value": "< 21.3", "unit": "nM"},
      {"measurement": "TGI", "setting": "[20]", "value": "> 70400", "unit": "nM"},
      {"measurement": "GI50", "setting": "[21]", "value": 131, "unit": "nM"},
      {"measurement": "TGI", "setting": "[21]", "value": 1220, "unit": "nM"},
      {"measurement": "GI50", "setting": "[22]", "value": 192, "unit": "nM"},
      {"measurement": "TGI", "setting": "[22]", "value": 443, "unit": "nM"},
      {"measurement": "GI50", "setting": "[23]", "value": 323, "unit": "nM"},
      {"measurement": "TGI", "setting": "[23]", "value": 1190, "unit": "nM"},
      {"measurement": "GI50", "setting": "[24]", "value": 346, "unit": "nM"},
      {"measurement": "TGI", "setting": "[24]", "value": 1220, "unit": "nM"},
      {"measurement": "GI50", "setting": "[25]", "value": 75.2, "unit": "nM"},
      {"measurement": "TGI", "setting": "[25]", "value": 1130, "unit": "nM"},
      {"measurement": "GI50", "setting": "[26]", "value": 197, "unit": "nM"},
      {"measurement": "TGI", "setting": "[26]", "value": 919, "unit": "nM"},
      {"measurement": "GI50", "setting": "[27]", "value": 122, "unit": "nM"},
      {"measurement": "TGI", "setting": "[27]", "value": 264, "unit": "nM"},
      {"measurement": "GI50", "setting": "[28]", "value": "< 21.6", "unit": "nM"},
      {"measurement": "TGI", "setting": "[28]", "value": 5710, "unit": "nM"},
      {"measurement": "GI50", "setting": "[29]", "value": 155, "unit": "nM"}
    ]}
  ]
}
